From patent publication US10414789B2, “Compositions comprising cyclic purine dinucleotides having defined stereochemistries and methods for their preparation and use” (ADURO BIOTECH, INC., priority 2012, dated 2019)

Columns and labels:
[1] = test system: snake venom phosphodiesterase (SVPD); conditions: 1 mg SVPD overnight at 37° C.; then 100 μM on DC2.4 cells; FIG. 8
[2] = test system: THP1-Blue human monocytes; test: IFN-β induction in THP1-Blue human monocytes (IRF-inducible SEAP reporter); format: cell-based; conditions: FIG. 15
Protocol: To determine the relative potency of the prodrug form of c-di-GMP to activate the innate immune response, relative levels of IFN-β induced in a human monocyte cell line were assessed. […] Cell culture supernatants from each sample were collected after 4 hours. 10 μL of the cell culture supernatants was added to QUANTI-Blue reagent (Invivogen) and incubated for 15-30 minutes. Absorbance at 655 nm was measured using a Model 680 spectrophotometer (BioRad).

[3] = test system: OVA-specific CD8+ T cell responses; test: OVA-specific CD8 T cell responses in splenocytes by intracellular cytokine staining after vaccination with CDN prodrug; format: in vivo, C57BL/6 mice; conditions: 5 μg CDN prodrug with 10 μg OVA and Addavax, s.c. twice, splenocytes 7 days post second vaccination; FIG. 16
Protocol: To assess the ability of the mono-2′-O-myristoyl c-di-GMP (“mono-2′-O-myristoyl CDG”) derivative to induce in vivo immune responses, OVA-specific CD8 T cell responses were measured in splenocytes at 7 days post second vaccination in conjunction with CDN treatment. To test the ability of mono-2′-O-myristoyl c-di-GMP relative to stimulate an OVA-specific immune responses, vaccines were prepared by combining 10 μg of OVA protein (EndoFit OVA, Invivogen) and Addavax (2% squalene final) with either 0 (Control) or 5 μg of mono-2′-O-myristoyl c-di-GMP derivative (“mono-2′-O-myristoyl CDG”), in a total volume of 100 μL. Groups of five female C57BL/6 mice (H-2b) were immunized twice subcutaneously (s.c) in the base of the tail with the vaccine preparations, and the OVA-specific CD8+ T cell responses in the spleens were determined by intracellular cytokine staining 7 days later. 1×10^6 splenocytes were unstimulated or stimulated with 1 μM of MHC class I (OVA257-264 SIINFEKL; SL8) peptide overnight and IFN-γ production was measured by flow cytometer on a BD FACSVerse.

DC2.4 cells = test: IFN-β induction by CDNs in DC2.4 antigen presenting cells (L929-ISRE luciferase reporter readout); format: cell-based, mouse; conditions: for relative level of IFN-β induced: DC2.4 cells incubated with 5, 20 and 100 μM CDN for 30 minutes, culture fluids after 4 hours, RLU in L929-ISRE reporter cells, FIG. 7; for level of IFN-β expression compared to c-di-GMP or c-di-AMP: cyclic dinucleotides not incubated with SVPD, 100 μM, DC2.4 cells, FIG. 8
Protocol: To measure the level of induced IFN-β, cell culture fluids from each sample were collected after 4 hours, and 10 μL was added to 5×10^4 L929-ISRE luciferase reporter cells cultured in RPMI media+10% FBS.

[4] = test system: OVA-specific CD4+ and CD8+ T cell responses; test: OVA-specific CD4+ and CD8+ T cell responses in PBMC by IFN-γ ELISpot after vaccination with OVA/Addavax plus CDN; format: in vivo, C57BL/6 mice; conditions: once s.c., PBMC 10 days post vaccination, FIG. 9
Protocol: To test the enhanced in vivo immunogenicity of Rp, Rp dithio c-di-GMP relative to unmodified c-di-GMP molecules, OVA-specific CD4+ and CD8+ T cell responses were measured in PBMCs at 10 days post vaccination in conjunction with CDN treatment. Vaccines were prepared by combining 10 μg of OVA protein (EndoFit OVA, InVivogen) and Addavax (2% squalene final) with either 25 μg or 5 μg of cyclic dinucleotide, in a total volume of 100 μL. Groups of five female C57BL/6 mice (H-2b) were immunized once subcutaneously (s.c) in the base of the tail with the vaccine preparations, and the OVA-specific CD4+ and CD8+ T cell responses in the peripheral blood mononuclear cell (PBMC) compartment were determined by ELISpot analysis 10 days later. 1×10^5 PBMCs and 1×10^5 splenocyte feeder cells isolated from aged-matched naïve C57BL/6 mice were un-stimulated or stimulated with 1 μM of MHC class II peptide (OVA265-280 TEWTSSNVMEERKIKV) or MHC class I (OVA257-264 SIINFEKL) peptide overnight and IFN-γ spot forming cells were measured, as described previously.

[5] = test system: OVA-expressing wild-type Listeria monocytogenes (WT Lm-OVA); test: Protective immunity against lethal WT Lm-OVA challenge (spleen CFU); format: in vivo, C57BL/6 mice; conditions: i.v. 2×LD50 (1×10^5 CFU) WT Lm-OVA at 27 days post boost; spleens 3 days later; FIG. 11C
Protocol: To establish the enhanced immunogenicity and accompanying protective immunity induced by Rp, Rp dithio c-di-GMP relative to unmodified c-di-GMP, OVA-specific CD8 T cell responses measured in PBMC and protective immunity assessed against lethal bacterial challenge. Vaccines were prepared by combining 10 μg of OVA protein (EndoFit OVA, InVivogen) and Addavax (2% squalene final) with 25 μg of cyclic dinucleotide, in a total volume of 100 μL. Groups of five female C57BL/6 mice (H-2^b) were immunized twice subcutaneously (s.c) in the base of the tail with the vaccine preparations. The interval between the prime and boost immunizations was 36 days. The magnitude of both the memory and expansion phases of the OVA257-specific CD8 T cell responses in PBMC were quantified by intracellular cytokine staining (ICS) analysis at both 27 days post-boost vaccination and at 3 days post challenge with a 2× lethal dose (LD)50 dose (1×10^5 colony forming units; CFU) of OVA-expressing wild-type Listeria monocytogenes (WT Lm-OVA). For ICS analysis, 1×10^5 PBMCs from test mice combined with 1×10^5 splenocyte feeder cells isolated from aged-matched naïve C57BL/6 mice were un-stimulated or stimulated with 1 μM of MHC class I peptide (OVA257-264 SIINFEKL) for 5 hrs. in the presence of Brefeldin A, and IFN-γ production was measured by flow cytometry on a BD FACSVerse. […]

[6] = test system: SIV gag-specific CD8+ and CD4+ T cell responses; test: SIV gag-specific CD8 and CD4 T cell responses by IFNγ ELISpot after vaccination with SIV gag protein plus CDN; format: in vivo, C57BL/6 mice; conditions: 1 ug CDN with 10 ug SIV gag protein in 2% squalene-in-water, s.c. twice 20 days apart, spleens six days after second vaccination; FIG. 10
Protocol: To further assess the immunogenicity of Rp, Rp dithio c-di-GMP relative to unmodified c-di-GMP molecules, SIV gag-specific CD8+ and CD4+ T cell responses were measured. Five C57BL/6 mice per group were immunized subcutaneously twice with either 1 ug Rp, Rp dithio c-di-GMP or saline control formulated in 2% squalene-in-water with 10 ug SIV gag protein. Vaccinations were separated by 20 days, and spleens were harvested six days after the second vaccination. Immune responses were measured to SIV gag-specific CD8 (AL11, SIV gag312-322, A) and CD4 (DD13, SIV gag300-312, B) T cell epitopes by IFNγ ELISpot assay. Plates were scanned and spot forming cells (SFC) per well were enumerated using an ImmunoSpot analyzer (CTL).

[7] = test system: OVA257-specific CD8 T cell responses; test: OVA-specific CD8 T cell memory and expansion in PBMC by intracellular cytokine staining after prime-boost vaccination; format: in vivo, C57BL/6 mice
Protocol: To establish the enhanced immunogenicity and accompanying protective immunity induced by Rp, Rp dithio c-di-GMP relative to unmodified c-di-GMP, OVA-specific CD8 T cell responses measured in PBMC and protective immunity assessed against lethal bacterial challenge. Vaccines were prepared by combining 10 μg of OVA protein (EndoFit OVA, InVivogen) and Addavax (2% squalene final) with 25 μg of cyclic dinucleotide, in a total volume of 100 μL. Groups of five female C57BL/6 mice (H-2^b) were immunized twice subcutaneously (s.c) in the base of the tail with the vaccine preparations. The interval between the prime and boost immunizations was 36 days. The magnitude of both the memory and expansion phases of the OVA257-specific CD8 T cell responses in PBMC were quantified by intracellular cytokine staining (ICS) analysis at both 27 days post-boost vaccination and at 3 days post challenge with a 2× lethal dose (LD)50 dose (1×10^5 colony forming units; CFU) of OVA-expressing wild-type Listeria monocytogenes (WT Lm-OVA). For ICS analysis, 1×10^5 PBMCs from test mice combined with 1×10^5 splenocyte feeder cells isolated from aged-matched naïve C57BL/6 mice were un-stimulated or stimulated with 1 μM of MHC class I peptide (OVA257-264 SIINFEKL) for 5 hrs. in the presence of Brefeldin A, and IFN-γ production was measured by flow cytometry on a BD FACSVerse.

TRAMP-C2 tumor cells = test: Anti-tumor efficacy of CDNs formulated with GVAX in a subcutaneous murine prostate cancer model; format: in vivo, C57BL/6 mice; conditions: by day 52 post tumor implantation; s.c. vaccination on days 4 and 11; FIG. 12
Protocol: The relative in vivo anti-tumor efficacy of the Rp, Rp dithio c-di-AMP and unmodified c-di-AMP derivatives were evaluated in a subcutaneous mouse model of prostate cancer. The derivative molecules were formulated with 1×10^6 irradiated whole TRAMP-C2 murine prostate tumor cells expressing GM-CSF (GVAX). Groups of 5 male C57BL/6 mice were implanted with 1×10^5 TRAMP-C2 tumor cells subcutaneous in the footpad. On days 4 and 11 post tumor implantation, mice were administered vaccinations subcutaneous in the flank of either GVAX alone, or GVAX formulated with RR-CDA or CDA, and compared to HBSS control. Tumor growth was monitored by calipers, and tumor volume was calculated.

Nc1ncnc2c1ncn2[C@@H]1O[C@@H]2COP(=O)(O)O[C@H]3[C@@H](O)[C@H](n4cnc5c(N)ncnc54)O[C@@H]3COP(=O)(O)O[C@H]2[C@H]1O [c-di-AMP, reference compound]
level of IFN-β expression after incubation of the CDN with SVPD versus without SVPD [1]: significantly lower

CCCCCCCCCCCCCC(=O)OC1C2OP(=O)(O)OCC3OC(n4cnc5c(=O)[nH]c(N)nc54)C(O)C3OP(=O)(O)OCC2OC1n1cnc2c(=O)[nH]c(N)nc21 (stereo not drawn) [mono-2′-O-myristoyl c-di-GMP]
levels of IFN-β induced compared to unmodified c-di-GMP and background (HBSS) ([2]; 100 μM for 30 minutes, supernatants after 4 hours, absorbance at 655 nm): significantly higher levels of IFN-β
OVA-specific CD8 T cell immune responses compared to Control vaccines [3]: greater immune responses

Nc1nc2c(ncn2[C@@H]2O[C@@H]3CO[P@@](=O)(S)O[C@H]4[C@@H](O)[C@H](n5cnc6c(=O)[nH]c(N)nc65)O[C@@H]4CO[P@@](=O)(S)O[C@H]3[C@H]2O)c(=O)[nH]1 [Rp, Rp dithio c-di-GMP, dithio [Rp,Rp] c-di-GMP]
IFN-β induction compared to Rp, Sp dithio c-di-GMP and unmodified c-di-GMP ([2]; human monocyte cell line): superior induction
relative level of IFN-β induced (DC2.4 cells): induced significantly higher levels of IFN-β than either the c-di-GMP or c-di-AMP unmodified cyclic dinucleotide molecules
level of IFN-β expression compared to c-di-GMP or c-di-AMP (DC2.4 cells): greater
magnitude of antigen-specific CD8+ T cell responses compared to 5 μg or 25 μg of unmodified c-di-GMP ([4]; 5 μg CDN): greater
CD4+ and CD8+ OVA-specific T cell responses compared to unmodified c-di-GMP ([4]; same amount of CDN adjuvant (25 μg or 5 μg)): of greater magnitude
protection against virulent pathogen challenge (spleen colonies) [5]: complete protection (below the limit of detection, LOD)
SIV gag-specific CD8 and CD4 T cell responses compared to saline control [6]: significantly higher
OVA-specific CD8 T cell memory compared to unmodified c-di-GMP adjuvanted vaccines ([7]; 25 μg CDN, s.c. prime and boost 36 days apart, PBMC 27 days post-boost, FIG. 11A): higher magnitude of OVA-specific CD8 T cell memory
expansion of OVA-specific memory CD8 T cells following challenge, compared to unmodified c-di-GMP adjuvanted vaccines ([7]; 3 days post challenge with 2× LD50 WT Lm-OVA, FIG. 11A): expanded to a higher magnitude
magnitude of OVA-specific CD8 T cell memory ([7]; FACS plot, FIG. 11B, 25 μg CDN adjuvanted vaccine): ~30 % of the total CD8 T cell population in PBMC
level of IFN-β expression after incubation of the CDN with SVPD versus without SVPD [1]: equivalent

Nc1nc2c(ncn2[C@@H]2O[C@@H]3CO[P@@](O)(=S)O[C@H]4[C@@H](O)[C@H](n5cnc6c(=O)[nH]c(N)nc65)O[C@@H]4CO[P@](O)(=S)O[C@H]3[C@H]2O)c(=O)[nH]1 [Rp, Sp dithio c-di-GMP, dithio [Rp,Sp] c-di-GMP]
relative level of IFN-β induced (DC2.4 cells): lower than the level induced by both the Rp, Rp dithio c-di-GMP and the Rp, Rp dithio c-di-AMP diastereomers as well as the native c-di-GMP and c-di-AMP molecules

Nc1nc2c(ncn2[C@@H]2O[C@@H]3COP(=O)(O)O[C@H]4[C@@H](O)[C@H](n5cnc6c(=O)[nH]c(N)nc65)O[C@@H]4COP(=O)(O)O[C@H]3[C@H]2O)c(=O)[nH]1 [c-di-GMP, reference compound]
level of IFN-β expression after incubation of the CDN with SVPD versus without SVPD [1]: significantly lower

Nc1ncnc2c1ncn2C1OC2COP(=O)(S)OC3C(COP(=O)(S)OC2C1O)OC(n1cnc2c(N)ncnc21)C3O (stereo not drawn) [Rp, Rp dithio c-di-AMP, dithio [Rp,Rp] c-di-AMP]
relative level of IFN-β induced (DC2.4 cells): induced significantly higher levels of IFN-β than either the c-di-GMP or c-di-AMP unmodified cyclic dinucleotide molecules
level of IFN-β expression compared to c-di-GMP or c-di-AMP (DC2.4 cells): greater
anti-tumor efficacy compared to GVAX alone or GVAX formulated with unmodified c-di-AMP (TRAMP-C2 tumor cells): increased anti-tumor potency
level of IFN-β expression after incubation of the CDN with SVPD versus without SVPD [1]: equivalent

Nc1ncnc2c1ncn2C1OC2COP(=O)(S)OC3C(COP(=O)(S)OC2C1O)OC(n1cnc2c(N)ncnc21)C3O (stereo not drawn) [Rp, Sp dithio c-di-AMP, dithio [Rp,Sp] c-di-AMP]
relative level of IFN-β induced (DC2.4 cells): lower than the level induced by both the Rp, Rp dithio c-di-GMP and the Rp, Rp dithio c-di-AMP diastereomers as well as the native c-di-GMP and c-di-AMP molecules
